Data published in patent US10858356B2, “Pyrazolopyridine derivative having GLP-1 receptor agonist effect” (Chugai Seiyaku Kabushiki Kaisha, priority 2016, dated 2020).
Read-outs that look alike come from different tables or passages of the source. Each block holds one compound with its values, some of them ahead of it.

Tests used:
[1] = Pharmacokinetics after oral administration; format: in vivo, cynomolgus monkey; conditions: for Cmax / Tmax / AUC(0-t): male, cynomolgus monkey, plasma, calcium salt hydrate crystal (Sample 162a) suspension, n=2; for AUC(0-t): read-out: AUC0-24 h
Description: The plasma concentrations of the drug were determined by liquid chromatography tandem-mass spectrometry. The lower limit of quantification was 0.3 ng/mL.

[2] = system: male cynomolgus monkeys; experiment: Insulin secretion promoting and blood glucose lowering effects after intravenous glucose; format: in vivo, cynomolgus monkey
Description: Next, a 50% glucose solution (glucose administration weight to the monkey: 0.5 g/kg) was intravenously administered and a blood sample was collected every 5 min or 10 min to measure the plasma insulin and glucose concentrations. The area under the curve was calculated from the time course of each parameter after the drug administration to evaluate the insulin secretion promoting effect and the blood glucose lowering effect.

[3] = system: male cynomolgus monkeys; format: in vivo, cynomolgus monkey
[4] = target: human GLP1R (Homo sapiens (Human), UniProt P43220); experiment: In vitro cAMP signal activation in human GLP1R stably-expressing cell line (hGLP1R-HEK293); format: cell-based; conditions: cAMP concentration in hGLP1R-HEK293; 100% = 1 nM human GLP-1 (7-37)
Sequence of human GLP1R (P43220 24-463): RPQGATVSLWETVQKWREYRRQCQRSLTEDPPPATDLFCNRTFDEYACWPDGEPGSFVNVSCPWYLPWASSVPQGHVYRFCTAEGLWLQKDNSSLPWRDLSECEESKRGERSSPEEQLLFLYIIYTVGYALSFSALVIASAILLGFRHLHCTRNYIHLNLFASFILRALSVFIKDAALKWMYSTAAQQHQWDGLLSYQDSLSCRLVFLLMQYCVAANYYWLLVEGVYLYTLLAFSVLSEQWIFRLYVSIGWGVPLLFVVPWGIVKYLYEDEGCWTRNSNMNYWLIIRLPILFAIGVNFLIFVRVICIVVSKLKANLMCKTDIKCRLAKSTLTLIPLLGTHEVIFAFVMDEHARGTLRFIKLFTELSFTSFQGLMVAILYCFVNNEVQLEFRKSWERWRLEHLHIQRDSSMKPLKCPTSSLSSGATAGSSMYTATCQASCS

[5] = continuous i.v. 40 min, steady-state plasma concentration 0.94 to 4.8 nmol/L, then i.v. glucose 0.5 g/kg, vs vehicle

SMILES: Cc1cc(-n2nc3c(c2-n2ccn(-c4ccc5c(cnn5C)c4F)c2=O)[C@H](C)N(C(=O)c2cc4cc([C@H]5CCOC(C)(C)C5)ccc4n2[C@@]2(c4noc(=O)[nH]4)C[C@@H]2C)CC3)cc(C)c1F [Example Compound 67, 3-[(1S,2S)-1-[5-[(4S)-2,2-dimethyloxan-4-yl]-2-[(4S)-2-(4-fluoro-3,5-dimethylphenyl)-3-[3-(4-fluoro-1-methylindazol-5-yl)-2-oxoimidazol-1-yl]-4-methyl-6,7-dihydro-4H-pyrazolo[4,3-c]pyridine-5-carbonyl]indol-1-yl]-2-methylcyclopropyl]-4H-1,2,4-oxadiazol-5-one]
time after oral administration at which plasma concentrations reached Cmax ([1]; all dosages (0.05, 0.15, 0.45 and 1.35 mg/kg), oral): 2 h | Cmax ([1]; 0.05 mg/kg oral): 4.78 ng/mL | Tmax ([1]; 0.05 mg/kg oral): 2 h | AUC(0-t) ([1]; 0.05 mg/kg oral): 23.7 ng·h/mL | Cmax ([1]; 0.15 mg/kg oral): 20.7 ng/mL | Tmax ([1]; 0.15 mg/kg oral): 2 h | AUC(0-t) ([1]; 0.15 mg/kg oral): 135 ng·h/mL | Cmax ([1]; 0.45 mg/kg oral): 32 ng/mL | Tmax ([1]; 0.45 mg/kg oral): 2 h | AUC(0-t) ([1]; 0.45 mg/kg oral): 208 ng·h/mL | Cmax ([1]; 1.35 mg/kg oral): 148 ng/mL | Tmax ([1]; 1.35 mg/kg oral): 2 h | AUC(0-t) ([1]; 1.35 mg/kg oral): 1040 ng·h/mL | absorption in the intestinal tract and elimination ([1]; oral 0.05 to 1.35 mg/kg): dose-proportionally absorbed in the intestinal tract and eliminated | area under the curve of insulin [2, 5]: increase in the area under the curve of insulin | area under the curve of plasma glucose [2, 5]: decrease in the area under the curve of plasma glucose | plasma concentration at which insulin secretion promoting and blood glucose lowering effects are equivalent to exenatide ([2]; steady-state plasma concentration, i.v. infusion): ≥ 1.6 nmol/L | degree of suppression of food intake compared with control drug ([3]; oral 0.05 or 0.1 mg/kg vs exenatide s.c. 0.3 or 0.6 μg/kg): almost equivalent to the control drug exenatide | food intake ([3]; oral, 5 consecutive days, 0.05 or 0.1 mg/kg, food intake for 90 min from 3 h after administration): suppressed the food intake in a dosage dependent manner

SMILES: Cc1cc(-n2nc3c(c2-n2ccn(-c4ccc5c(cnn5C)c4Cl)c2=O)[C@H](C)N(C(=O)c2cc4cc(C5CCOCC5)ccc4n2[C@@]2(c4noc(=O)[nH]4)C[C@@H]2C)CC3)cc(C)c1F [compound 72, 3-[(1S,2S)-1-[2-[(4S)-3-[3-(4-chloro-1-methylindazol-5-yl)-2-oxoimidazol-1-yl]-2-(4-fluoro-3,5-dimethylphenyl)-4-methyl-6,7-dihydro-4H-pyrazolo[4,3-c]pyridine-5-carbonyl]-5-(oxan-4-y)indol-1-yl]-2-methylcyclopropyl]-4H-1,2,4-oxadiazol-5-one]
EC50 [4]: 2.3 nM

SMILES: Cc1cc(-n2nc3c(c2-n2ccn(-c4ccc5c(cnn5[C@H]5CCOC5)c4F)c2=O)[C@H](C)N(C(=O)c2cc4cc([C@H]5CCOC(C)(C)C5)ccc4n2[C@@]2(c4noc(=O)[nH]4)C[C@@H]2C)CC3)cc(C)c1F [Example 40, 3-[(1S,2S)-1-[5-[(4S)-2,2-dimethyloxan-4-yl]-2-[(4S)-2-(4-fluoro-3,5-dimethylphenyl)-3-[3-[4-fluoro-1-[(3S)-oxolan-3-yl]indazol-5-yl]-2-oxoimidazol-1-yl]-4-methyl-6,7-dihydro-4H-pyrazolo[4,3-c]pyridine-5-carbonyl]indol-1-yl]-2-methylcyclopropyl]-4H-1,2,4-oxadiazol-5-one]
EC50 [4]: 2.2 nM

SMILES: Cc1cc(-n2nc3c(c2-n2ccn(-c4ccc5c(cnn5C)c4)c2=O)CN(C(=O)c2cc4cc(C5CCOCC5)ccc4n2[C@@]2(c4noc(=O)[nH]4)C[C@@H]2C)CC3)cc(C)c1Cl [compound 55, 3-[(1S,2S)-1-[2-[2-(4-chloro-3,5-dimethylphenyl)-3-[3-(1-methylindazol-5-yl)-2-oxoimidazol-1-yl]-6,7-dihydro-4H-pyrazolo[4,3-c]pyridine-5-carbonyl]-5-(oxan-4-yl)indol-1-yl]-2-methylcyclopropyl]-4H-1,2,4-oxadiazol-5-one]
EC50 [4]: 3.7 nM

SMILES: COCCn1ncc2cc(-n3ccn(-c4c5c(nn4-c4ccc(F)c(C)c4)CCN(C(=O)c4cc6cc(N7CCOC(C)(C)C7)ccc6n4[C@@]4(c6noc(=O)[nH]6)C[C@@H]4C)C5)c3=O)ccc21 [compound 58, 3-[(1S,2S)-1-[5-(2,2-dimethylmorpholin-4-yl)-2-[2-(4-fluoro-3-methylphenyl)-3-[3-[1-(2-methoxyethyl)indazol-5-yl]-2-oxoimidazol-1-yl]-6,7-dihydro-4H-pyrazolo[4,3-c]pyridine-5-carbonyl]indol-1-yl]-2-methylcyclopropyl]-4H-1,2,4-oxadiazol-5-one]
EC50 [4]: 7.6 nM

Continued, values first:

EC50 [4]: 1 nM
SMILES: Cc1cc(-n2nc3c(c2-n2ccn(-c4ccc5c(c4)CC(=O)N(C)C5)c2=O)[C@H](C)N(C(=O)c2cc4cc([C@H]5CCOC(C)(C)C5)ccc4n2[C@@]2(c4noc(=O)[nH]4)C[C@@H]2C)CC3)cc(C)c1F [Example 39, 3-[(1S,2S)-1-[5-[(4S)-2,2-dimethyloxan-4-yl]-2-[(4S)-2-(4-fluoro-3,5-dimethylphenyl)-4-methyl-3-[3-(2-methyl-3-oxo-1,4-dihydroisoquinolin-6-yl)-2-oxoimidazol-1-yl]-6,7-dihydro-4H-pyrazolo[4,3-c]pyridine-5-carbonyl]indol-1-yl]-2-methylcyclopropyl]-4H-1,2,4-oxadiazol-5-one]

EC50 [4]: 1.6 nM
SMILES: CCS(=O)(=O)c1ccc(-n2ccn(-c3c4c(nn3-c3cc(C)c(F)c(C)c3)CCN(C(=O)c3cc5cc(C6CCOCC6)ccc5n3[C@@]3(c5noc(=O)[nH]5)CC3C)[C@H]4C)c2=O)cc1 (stereo in doubt) [Example 21, 3-[(1S,2S)-1-[2-[(4S)-3-[3-(4-ethylsulfonylphenyl)-2-oxoimidazol-1-yl]-2-(4-fluoro-3,5-dimethylphenyl)-4-methyl-6,7-dihydro-4H-pyrazolo[4,3-c]pyridine-5-carbonyl]-5-(oxan-4-yl)indol-1-yl]-2-methylcyclopropyl]-4H-1,2,4-oxadiazol-5-one]

EC50 [4]: 1.1 nM
SMILES: COCCn1ncc2cc(-n3ccn(-c4c5c(nn4-c4cc(C)c(F)c(C)c4)CCN(C(=O)c4cc6cc(C7CCOCC7)cc(F)c6n4[C@@]4(c6noc(=O)[nH]6)C[C@@H]4C)[C@H]5C)c3=O)ccc21 [compound 63, 3-[(1S,2S)-1-[7-fluoro-2-[(4S)-2-(4-fluoro-3,5-dimethylphenyl)-3-[3-[1-(2-methoxyethyl)indazol-5-yl]-2-oxoimidazol-1-yl]-4-methyl-6,7-dihydro-4H-pyrazolo[4,3-c]pyridine-5-carbonyl]-5-(oxan-4-yl)indol-1-yl]-2-methylcyclopropyl]-4H-1,2,4-oxadiazol-5-one]
